“And” between values parts separate entries of the source, which are not always exact repeats. Equal values may be shown once. Where a name gives a salt, the structure may show the parent alone.
Tests used:
NR1/NR2C (NR1100) = NR1/NR2C (NR1100) (Rattus norvegicus, UniProt P35439+Q00961); experiment: cell-based
Description: Plasmids containing the NR1100 (NR1G) and NR2A cDNA inserts were kindly provided by Dr. Nakanishi (Kyoto University Faculty of Medicine, Kyoto, Japan). Plasmids containing the NR2B, NR2C and NR2D cDNA inserts were kindly provided by Dr. P. Seeburg (Heidelberg University, Heidelberg, Germany). Plasmids were linearized with appropriate restriction enzyme prior to in vitro transcription using the Message Machine kit (Ambion, Inc., Austin, Tex.).
Female, oocyte-positive Xenopus laevis frogs were purchased from Xenopus I (Dexter, Mich.). […] Oocytes were injected with 50 nL of RNA solutions using an electronic microinjector (Drummond Inc., Broomall, Pa.). […] The injected oocytes were used for experiments following 1-5 days of incubation in Barth's solution at 18-20° C.
The microelectrodes were fabricated from borosilicate glass capillaries with a programmed puller (Sutter Instrument Co., Calif.). Microelectrode resistance was 1-3 MΩ_when filled with 3 M KCl.
Except where otherwise stated, oocytes were clamped at a holding potential of −70 mV during data acquisition. The membrane current was filtered at 500 Hz and sampled at 100 Hz. Drugs were applied using a gravity-driven external perfusion system. The working volume of the recording chamber was 30 μl and the rate of the perfusion was 50 μl/sec. The drug application lasted 10 sec and was followed by 60 s wash. Data acquisition and external perfusion were controlled using custom-written software implemented in the SuperScope II development environment (GW Instruments, Mass.). All experiments were performed at room temperature of 22-24° C. Peak or steady-state current measurements were normalized and expressed as a fraction of the peak or steady-state control current measurements, which were performed before and after application of every single concentration of agonists or steroids.
Concentration-response data were analyzed by nonlinear regress ion using the logistic equation Response=Emax/(1+(EC50/c)^nH), where c is concentration, Emaxis the maximum response, nHis the Hill coefficient. The data are presented as mean±SEM. EC50values are averaged as logarithms (De Lean et al., Am. J. Physiol. 235: E97-E102 (1978))±the SEM of the log EC50. […] The pooled data were simultaneously fitted to the logistic equation, either with Emax and EC50 constrained to be identical in the presence and absence of PS, or allowing one or both to vary independently. […] This was regarded as indicating a significant treatment effect of PS, but the change in EC50and Emaxwas not considered significant. […] No attempt was made to test the generally small changes in nHfor statistical significance.

NR1100/NR2A = experiment: NMDA-induced currents of NR1 splice variants, Xenopus oocytes, Example 4; format: cell-based; conditions: 100 μM PS
Description: Overnight cultures (500 ml) of transformed bacterial cells were prepared in order to grow sufficient quantities for maxiprep isolation of the plasmid CDNA. Maxipreps were done using a Sorvall RC-5B ultracentrifuge, Qiagen columns and cDNA was quantitated with spectrophotometry (OD260 and OD260/ OD280 ratio). The resulting plasmid cDNA was linearized by digestion with an appropriate restriction enzyme that cleaves distal to the cDNA insert (XhoI for NR2A or NotI for NR1100, NR1000, NR1111, NR1011, NR1101, NR1001). […] The samples were stored at −20° C. until use.
In vitro transcription was performed using the Ambion mMessage mMachine kit with T7 (NR1100, NR1000, NR1111, NR1011, NR1101, NR1001) RNA polymerase. The reaction was assembled on ice and allowed to incubate at 37° C. for 1-2 hr. The resulting mRNA was precipitated (reaction termination) using lithium chloride/5 mM EDTA solution and dissolved in RNase-free H2O. The concentration (OD260) and OD260/OD280 ratio (should be more than 1.5) was determined by spectrophotometer. The yield of mRNA was generally 15-30 μg. mRNA was stored at −80° C. until use.
Intracellular recording microelectrodes were fabricated from 100 μl borosilicate glass disposable micropipettes using a 2-step protocol on a standard horizontal Flaming-Brown micropipette puller.

[1] = target: T1, NR1011/NR2B-D chimera(IV) (Rattus norvegicus, UniProt P35439+Q62645, A747T/A861I/D811G/D828E/DEL874-885/E739D/E740D/F807L/G793D/G854A/H791Q/I800V/I813M/I830N/INS886[…]/K766R/K836Q/L790I/L804I/L808F/L850G/L858I/L870F/M815E/M890I/P736R/P799Q/Q744S/R732K/R737G/R765G/R795G/R818A/R869Q/S728A/S822T/T743L/T783S/V731G/V851A/V859T/V866F/W862C/Y733F); experiment: NR2 chimera study, Xenopus oocytes, Example 7; format: cell-based; conditions: 100 μM PS; 300 μM NMDA; 50 μM Glycine
T1 construct: expressed in transfected cells; host or cells: Xenopus oocytes
Text: In the fourth chimera receptor, NR2B-DChimera (IV), the residues 727 to 892 were replaced on NR2D with residues 703 to 870 of NR2B, which contains the second extracellular domain, the fourth hydrophobic transmembrane domain and 31 residues from the C-terminal intracellular tail.
(§1) The chimeric receptors were generated by first introducing a series of silent restriction sites in both the NR2B and NR2D cDNA. The chimeric cDNAs were then constructed by replacing corresponding regions of one cDNA with that of the other. The silence site mutations were generated by a method involving PCR. […] This cassette was then ligated into the cDNA cut with the same two restriction enzymes.

NR1101/NR2B = target: T2, NR1101/NR2B (Rattus norvegicus, UniProt P35439+Q00960); experiment: NMDA receptor currents in Ba-Ringer, Xenopus oocytes, Example 3; format: cell-based
T2 construct: expressed in transfected cells; host or cells: Xenopus oocytes

NR1111/NR2B = target: T3, NR1111/NR2B (Rattus norvegicus, UniProt P35439+Q00960); experiment: as above; format: cell-based
T3 construct: expressed in transfected cells; host or cells: Xenopus oocytes

[2] = target: T4, NR1011/NR2B-D Chimera (III) (Rattus norvegicus, UniProt P35439+Q00960, A556P/A573T/A605S/A700P/A704S/A794R/A827V/A830G/C588S/C838W/D557A/D591T/D676E/D715E/D716E/D769G/DEL851-864/E594R/E701D/E791M/E804D/F554Y/F580L/F677Q/F681L/F709Y/F784L/F842V/F846L/G611A/G707V/G713R/G741R/G771R/G787D/G826L/I530V/I568T/I766L/I780L/I834L/I837A/I868M/INS849[…]/K624R/K669R/K708R/L566C/L719T/L783F/M789I/N675Q/N697S/N806I/P598S/Q621E/Q662T/Q767H/Q775P/Q812K/Q845R/R593K/R682K/R693K/R712P/R742K/S539A/S570V/S599T/S633L/S678Y/S720Q/S759T/T723A/T798S/T835V/V576I/V776I); experiment: NR2 chimera study, Xenopus oocytes, Example 7; format: cell-based; conditions: 100 μM PS; 300 μM NMDA; 50 μM Glycine
T4 construct: expressed in transfected cells; host or cells: Xenopus oocytes
Text: (§2) To produce the first subunit, 96% of the cytoplasmic COOH-terminal region of the NR2B subunit (residues 870 to 1482) were replaced with the corresponding region of the NR2D subunit (residues 892 to 1323).
as §1

[3] = target: T5, NR1011/NR2B-D Chimera(II) (Rattus norvegicus, UniProt P35439+Q00960+Q62645, A556P/A573T/A605S/A700P/A704S/A794R/A827V/A830G/C588S/C838W/D557A/D591T/D676E/D715E/D716E/D769G/E594R/E701D/E791M/E804D/F554Y/F580L/F677Q/F681L/F709Y/F784L/F842V/F846L/G611A/G707V/G713R/G741R/G771R/G787D/G826L/I530V/I568T/I766L/I780L/I834L/I837A/K624R/K669R/K708R/L566C/L719T/L783F/M789I/N675Q/N697S/N806I/P598S/Q621E/Q662T/Q767H/Q775P/Q812K/Q845R/R593K/R682K/R693K/R712P/R742K/S539A/S570V/S599T/S633L/S678Y/S720Q/S759T/T723A/T798S/T835V/V576I/V776I); experiment: NR2 chimera study, Xenopus oocytes, Example 7; format: cell-based; conditions: 100 μM PS; 300 μM NMDA; 50 μM Glycine
T5 construct: expressed in transfected cells; host or cells: Xenopus oocytes
Text: as §2, §1

NR1011/NR2B-D Chimera(I) = target: T6, NR1011/NR2B-D Chimera(I) (Rattus norvegicus, UniProt P35439+Q00960+Q62645); experiment: NR2 chimera study, Xenopus oocytes, Example 7; format: cell-based; conditions: 100 μM PS; 300 μM NMDA; 50 μM Glycine
T6 construct: expressed in transfected cells; host or cells: Xenopus oocytes
Text: as §2, §1

NR1001/NR2B = target: T7, NR1001/NR2B (Rattus norvegicus, UniProt P35439+Q00960); experiment: NMDA receptor currents in Ba-Ringer, Xenopus oocytes, Example 3; format: cell-based
T7 construct: expressed in transfected cells; host or cells: Xenopus oocytes

NR1/NR2A = target: T8, NR1/NR2A (Rattus norvegicus, UniProt P35439+Q00959); experiment: NMDA-induced membrane currents, Xenopus oocytes, Example 7; format: cell-based
T8 construct: expressed in transfected cells; host or cells: Xenopus oocytes injected with mRNA
Description: Plasmids were linearized with appropriate restriction enzyme prior to in vitro transcription using the Message Machine kit (Ambion, Inc., Austin, Tex.).
Oocytes were injected with 50 nL of RNA solutions using an electronic microinjector (Drummond Inc., Broomall, Pa.). […] The injected oocytes were used for experiments following 1-5 days of incubation in Barth's solution at 18-20° C.
The microelectrodes were fabricated with a programmed puller (Sutter Instrument Co., Calif.) from borosilicate glass capillaries and were filled with 3 M KCl solution. The resistance of filled microelectrodes was in the range of 1-3 MΩ. […] If not mentioned otherwise, during data acquisition oocytes were clamped at a holding potential of −70 mV. The membrane current was filtered at 500 Hz and sampled at 100 Hz. Drugs were applied using a gravity driven external perfusion system. The working ,volume of the recording chamber was 30 μl and the rate of the perfusion was 50 μl/sec. The drug application lasted 10 sec and was followed by a 60 sec wash. The data acquisition and external perfusion control were done using the SuperScopeII software package (GW Instruments, Mass.). […] Peak or steady-state current measurements were normalized and expressed as a fraction of the peak or steady-state control current measurements, which were performed before and after application of every single consentration of agonist or steroid. […]

T7 sequence (Q00960 27-1482, other chains not shown): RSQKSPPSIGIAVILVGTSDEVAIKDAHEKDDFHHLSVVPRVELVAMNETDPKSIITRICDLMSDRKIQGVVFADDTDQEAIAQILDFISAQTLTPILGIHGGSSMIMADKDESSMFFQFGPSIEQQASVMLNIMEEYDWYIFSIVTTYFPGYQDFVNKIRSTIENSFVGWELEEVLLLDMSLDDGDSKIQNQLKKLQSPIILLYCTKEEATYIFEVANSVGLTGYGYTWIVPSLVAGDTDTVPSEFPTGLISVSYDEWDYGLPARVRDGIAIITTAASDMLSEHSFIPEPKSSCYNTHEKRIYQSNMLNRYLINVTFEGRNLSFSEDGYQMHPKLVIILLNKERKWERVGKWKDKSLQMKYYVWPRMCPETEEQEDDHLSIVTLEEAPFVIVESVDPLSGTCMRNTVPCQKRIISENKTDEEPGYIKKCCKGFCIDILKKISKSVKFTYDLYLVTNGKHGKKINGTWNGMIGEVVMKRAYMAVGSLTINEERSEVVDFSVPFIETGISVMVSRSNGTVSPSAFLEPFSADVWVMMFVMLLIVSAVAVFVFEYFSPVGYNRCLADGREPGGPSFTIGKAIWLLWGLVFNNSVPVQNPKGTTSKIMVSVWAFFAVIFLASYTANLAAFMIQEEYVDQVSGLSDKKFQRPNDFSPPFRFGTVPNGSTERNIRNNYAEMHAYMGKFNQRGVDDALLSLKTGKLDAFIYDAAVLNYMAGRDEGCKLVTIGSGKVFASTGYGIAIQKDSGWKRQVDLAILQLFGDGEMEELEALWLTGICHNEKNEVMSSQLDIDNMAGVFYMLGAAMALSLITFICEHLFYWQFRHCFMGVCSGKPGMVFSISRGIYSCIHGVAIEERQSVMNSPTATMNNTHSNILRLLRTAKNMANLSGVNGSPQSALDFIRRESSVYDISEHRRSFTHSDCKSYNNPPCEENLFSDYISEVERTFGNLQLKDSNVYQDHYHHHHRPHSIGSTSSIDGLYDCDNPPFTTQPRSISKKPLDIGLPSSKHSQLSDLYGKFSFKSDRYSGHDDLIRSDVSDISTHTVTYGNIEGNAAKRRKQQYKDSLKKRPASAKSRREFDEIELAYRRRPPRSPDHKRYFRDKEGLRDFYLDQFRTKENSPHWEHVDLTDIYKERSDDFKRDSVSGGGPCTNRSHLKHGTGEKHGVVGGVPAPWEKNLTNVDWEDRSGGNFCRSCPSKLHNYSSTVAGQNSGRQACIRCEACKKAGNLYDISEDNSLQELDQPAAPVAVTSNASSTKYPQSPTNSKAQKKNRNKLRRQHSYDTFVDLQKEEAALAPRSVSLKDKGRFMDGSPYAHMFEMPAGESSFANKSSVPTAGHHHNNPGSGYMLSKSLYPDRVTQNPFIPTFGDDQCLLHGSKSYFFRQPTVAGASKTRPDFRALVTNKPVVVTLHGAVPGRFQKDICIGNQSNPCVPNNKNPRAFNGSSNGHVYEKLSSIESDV
T3 sequence (Q00960 27-1482, other chains not shown): as above
T2 sequence (Q00960 27-1482, other chains not shown): as above

| Compound | EC50 (NR1/NR2C (NR1100)) [µM] | Emax (NR1/NR2C (NR1100); read-out: 3α5βS Emax (% Change)) [%] | difference in mrc between NR1000/NR2A and NR1100/NR2A (NR1100/NR2A) [fold] | potentiation of inward current [1] | PS Emax (NR1101/NR2B) | PS nHill (NR1101/NR2B) | PS Emax (NR1111/NR2B) | PS nHill (NR1111/NR2B) | inhibition of inward current [2] [%] | inhibition of inward current [3] [%] | potentiation of inward current (NR1011/NR2B-D Chimera(I)) [%] | PS Emax (NR1001/NR2B) | PS nHill (NR1001/NR2B) | potentiation of NMDA responsive membrane current (NR1/NR2A; 100 μM PS, 80 μM NMDA, 10 μM glycine) [%] | maximum potentiation (NR1/NR2A; PS 0.5 to 200 μM) [%] |
| --- | --- | --- | --- | --- | --- | --- | --- | --- | --- | --- | --- | --- | --- | --- | --- |
| CC(=O)[C@H]1CC[C@H]2[C@@H]3CC[C@@H]4C[C@H](OS(=O)(=O)O)CC[C@]4(C)[C@H]3CC[C@]12C [3α5βS, 3α5β-pregnanolone sulfate] | 12 | -99 ± 2 | – | – | – | – | – | – | – | – | – | – | – | – | – |
| pregnenolone sulfate [PS] | – | – | 1.3 | 66.05±2.75% and 66.05±2.76% | 1.03 ± 0.02 | 1.63 ± 0.29 | 1.20 ± 0.10 | 1.52 ± 0.10 | 36.74±6.54 | 43.04±5.44 | 52.69±3.58 | 0.63 ± 0.07 | 1.34 ± 0.17 | 59±4 | 67±7 |

Source: patent US6623933B1 (priority 1999, dated 2003)
